From publication PMC10917667, “Targeted protein degradation via intramolecular bivalent glues” (Nature, 2024)
pIC50: −log10 of the molar value.

Molecular target: T1, BRD4 (BRD4^Tandem) (Homo sapiens, UniProt O60885)
T1 construct: BRD4^Tandem (residues 43–459), BD1 and BD2 with native linker; with DCAF16–DDB1(ΔBPB)–DDA1
Assay: cryo-EM ternary structure ([…] Å); alphaLISA displacement ([…] with DCAF16, […] alone); ITC; TR-FRET
Type: binding

pIC50: 7.89
SMILES: COC(=O)C[C@@H]1N=C(c2ccc(-c3ccc(C(=O)NCc4ccc(S(=O)(=O)Nc5ccc(C)c6c(C#N)c[nH]c56)cc4)cc3)cc2)c2c(sc(C)c2C)-n2c(C)nnc21 [IBG1]
